Results on 4 compounds are retold here after PubChem BioAssay (NCI).

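Method: 48-hour compound exposure of cells in 96-well plates, five concentrations, linear interpolation of endpoints. TGI marks complete inhibition of growth.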

Common to all, as to assay: inhibition of tumour cell growth, NCI panel, 48 h
Assay [1] relates to DLD-1 colon.
In assay [2] the test system is DMS 273 small cell lung.
Assay [3] deals with BT-549 breast.
Assay [4] relates to MCF7 breast.
Assay [5] relates to PC-3 prostate.
In assay [6] the test system is T-47D breast.
The test system of assay [7] is RXF-631 renal.
For assay [8], the system named is XF 498 CNS.

Take `CN1Cc2ccccc2C2(COc3ccccc3C2=O)C1` (stereo not drawn): the TGI in assay [1] and in assay [2] was > 100 µM each time.
As for `CC(=O)c1c(-c2ccco2)c(C#N)c(=S)n(C2OC(CO)C(O)C(O)C2O)c1C` (stereo not drawn), the TGI in assay [3], in assay [4], in assay [5] and in assay [6] was > 100 µM throughout.
Regarding `CN1COCN=C1NC#N`, the TGI in assay [1], in assay [7] and in assay [8] was > 100 µM throughout.
Regarding `Cc1cc(C)c(S(=O)(=O)N(CCCCCN)OCCCN)c(C)c1`, the TGI in assay [3] was 32.4 µM; in assay [4] it was 33.5 µM; in assay [5] it was 28.8 µM; in assay [6], 37.7 µM.
